This note sets out measurements from patent publication US20170189366A1, “METHOD FOR TREATING DISORDERS RELATED TO COMPLEMENT ACTIVATION” (CASE WESTERN RESERVE UNIVERSITY, priority 2006, published 2017).

Assay [1] has as its system laser-induced choroidal neovascularization. The assay is described as follows: Murine laser-induced CNV model. The format is in vivo, mouse. The settings on record: i.p. injection. The text has this:
FIGS. 2A-B are a series of flat mounts showing the effects on lesion size of the amidine compound in a laser-induced CNV mouse model.
As part of our exploration of different strategies for inhibiting complement activation intraocularly so as to arrive at what methodology could be most efficacious for treating AMD patients clinically, we utilized the standard murine CNV model and analyzed the effect of an i.p. injection of FUT-175. As shown diagrammatically in FIGS. 2A-B, the drug reduced lesion size by >80%.

The subject of assay [2] is C3b activation on RPE-43 cell line. Kind of assay: Alternative pathway-dependent amplification of complement activation on C3b-seeded RPE-43 cell line. In kind it is cell-based. As to conditions: after addition of C3, factor B, factor D, factor H, read-out: inhibition of further C3b activation. The text has this:
FIGS. 1A-C are a series of graphs showing the ability of an amidine compound according to the present invention to inhibit alternative pathway-dependent amplification of C3 cleavage. In FIG. 1A, factor B, factor D, and C3 were mixed in the absence or presence of increasing concentrations of the amidine compound and generation of C3a was quantified by ELISA. In FIG. 1B, factor B, factor D, C3, and a limiting amount of factor H were mixed in the absence or presence of two doses of the amidine compound following initial deposition of C3b on Bruch's membrane via anti-CEP initiated classical pathway activation. In FIG. 1C, factor B, factor D, C3, and a limiting amount of factor H were mixed in the absence or presence of two doses of the amidine compound following initial deposition of C3b on the RPE-43 cell line by anti-class I monomorphic antibody; and To determine how effective FUT-175 is in preventing alternative pathway-dependent amplification of complement activation on Bruch's membrane and RPE cells, we seeded purified Bruch's membrane from an AMD patient and the RPE-43 cell line with C3b (as would occur with anti-CEP autoantibodies) by sensitization with anti-CEP and anti-HLA monomorphic monoclonal antibodies, respectively, followed by incubation with purified C1, C4, C2, and decay of C1 and C2. […]

For the compound `N=C(N)Nc1ccc(C(=O)Oc2ccc3cc(C(=N)N)ccc3c2)cc1` [FUT-175, 6-amidino-2-napthyl-4-guanidinobenzoate dimethanesulfonate], in assay [1], the “reduction of lesion size” value is more than 80%. Also, in assay [2], the inhibition at 0.3 µM is approximately 50%.
